Reference: ChEMBL document CHEMBL5038592, “Discovery of MK-8153, a Potent and Selective ROMK Inhibitor and Novel Diuretic/Natriuretic” (J Med Chem, 2021)
The source made the active and inactive calls. The calls are words filed in the database; no cut-off is given here.

Columns and labels:
Rattus norvegicus [1] = assay: Antihypertensive activity in spontaneous hypertensive rat model assessed as decrease in systolic blood pressure at 3 mg/kg, po QD observed for 3 days; format: functional, organism-based; details: time 3.0 day
[2] = Inhibition of Kir2.1 (unknown origin); parameters: species or system Homo sapiens
[3] = Volume of distribution at steady state in rhesus monkey at 2 mg/kg, po or 1 mg/kg, iv; format: ADME, organism-based, Macaca mulatta; details: in vivo, read-out: Vdss
Rattus norvegicus [4] = assay: Diuretic activity in orally dosed spontaneous hypertensive rat assessed as increase in sodium excretion treated for 3 days measured after 0 to 4 hrs of dosing; format: functional, organism-based; details: time 3.0 day
[5] = Toxicity in rat assessed as tolerance at 5 to 300 mg/kg treated for 7 days; format: organism-based; details: in vivo, 168 h, dose 5-300 mg/kg, time 7 day
[6] = Drug metabolism in Beagle dog hepatocytes assessed as metabolite formation by LC/MS analysis; format: ADME, cell-based, Canis lupus familiaris, Hepatocyte
Cytochrome P450 2C8 = molecular target: T1, Cytochrome P450 2C8 (Homo sapiens, UniProt P10632); assay: Inhibition of CYP2C8 (unknown origin)
T1 sequence (P10632 whole entry): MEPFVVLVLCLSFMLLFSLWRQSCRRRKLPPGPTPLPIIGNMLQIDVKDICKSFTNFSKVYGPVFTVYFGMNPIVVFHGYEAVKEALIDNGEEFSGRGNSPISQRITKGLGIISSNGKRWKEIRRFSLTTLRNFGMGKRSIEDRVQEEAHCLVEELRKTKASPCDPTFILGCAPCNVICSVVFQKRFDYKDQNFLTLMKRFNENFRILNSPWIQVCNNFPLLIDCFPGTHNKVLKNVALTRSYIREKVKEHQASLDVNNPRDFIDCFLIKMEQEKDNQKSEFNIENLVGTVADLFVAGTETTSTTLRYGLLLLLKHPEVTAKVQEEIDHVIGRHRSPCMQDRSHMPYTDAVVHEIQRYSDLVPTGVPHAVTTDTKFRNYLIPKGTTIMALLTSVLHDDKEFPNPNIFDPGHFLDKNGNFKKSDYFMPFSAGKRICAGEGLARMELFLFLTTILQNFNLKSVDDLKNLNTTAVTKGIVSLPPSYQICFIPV

[7] = Metabolic stability in human liver microsomes by LC/MS analysis; format: ADME, Microsome
[8] = Cmax in Wistar Han rat at 2 mg/kg, po or 1 mg/kg, iv; format: ADME, organism-based; parameters: dose 2 mg/kg; details: in vivo
Rattus norvegicus [9] = assay: Antihypertensive activity in spontaneous hypertensive rat model assessed as decrease in systolic blood pressure at 1 mg/kg, po QD observed for 3 days; format: functional, organism-based; details: time 3.0 day
[10] = Metabolic stability in Wistar Han rat liver microsomes by LC/MS analysis; format: ADME, Microsome
[11] = Effective half life in Wistar Han rat at 2 mg/kg, po or 1 mg/kg, iv; format: ADME, organism-based; details: in vivo, read-out: t1/2eff (converted)
[12] = Oral bioavailability in rhesus monkey at 2 mg/kg; format: ADME, organism-based, Macaca mulatta; details: in vivo
[13] = Clearance in Wistar Han rat at 2 mg/kg, po or 1 mg/kg, iv; format: ADME, organism-based; details: in vivo
[14] = molecular target: Voltage-dependent L-type calcium channel subunit alpha-1C (Homo sapiens, UniProt Q13936); assay: Inhibition of Cav1.2 (unknown origin)
[15] = molecular target: Sodium channel protein type 5 subunit alpha (Homo sapiens, UniProt Q14524); assay: Inhibition of Nav1.5 (unknown origin)
[16] = Clearance in rhesus monkey at 2 mg/kg, po or 1 mg/kg, iv; format: ADME, organism-based, Macaca mulatta; details: in vivo
[17] = Metabolic stability in Beagle dog liver microsomes by LC/MS analysis; format: ADME, Canis lupus familiaris, Microsome
[18] = Toxicity in rat assessed as histological changes at 5 to 300 mg/kg treated for 7 days; format: organism-based; details: in vivo, 168 h, dose 5-300 mg/kg, time 7 day
[19] = Cmax in Beagle dog at 2 mg/kg, po or 1 mg/kg, iv; format: ADME, organism-based, Canis lupus familiaris; parameters: dose 2 mg/kg; details: in vivo
[20] = Metabolic stability in Beagle dog hepatocytes by LC/MS analysis; format: ADME, cell-based, Canis lupus familiaris, Hepatocyte
Cytochrome P450 2C9 = Cytochrome P450 2C9 (Homo sapiens, UniProt P11712); assay: Inhibition of CYP2C9 (unknown origin)
[21] = Drug metabolism in human hepatocytes assessed as metabolite formation by LC/MS analysis; format: ADME, cell-based, Hepatocyte
[22] = Effective half life in Beagle dog at 2 mg/kg, po or 1 mg/kg, iv; format: ADME, organism-based, Canis lupus familiaris; details: in vivo, read-out: t1/2eff (converted)
[23] = Toxicity in rat assessed as change in body weight at 5 to 300 mg/kg treated for 7 days; format: organism-based; details: in vivo, 168 h, dose 5-300 mg/kg, time 7 day
[24] = Apparent permeability in pig LLC-PK1 cells
[25] = Oral bioavailability in Beagle dog at 2 mg/kg; format: ADME, organism-based, Canis lupus familiaris; details: in vivo
Rattus norvegicus [26] = assay: Diuretic activity in orally dosed spontaneous hypertensive rat assessed as urine volume treated for 3 days measured after 0 to 24 hrs of dosing; format: functional, organism-based; details: time 3.0 day

Chain of Cytochrome P450 2C9 (P11712 whole entry): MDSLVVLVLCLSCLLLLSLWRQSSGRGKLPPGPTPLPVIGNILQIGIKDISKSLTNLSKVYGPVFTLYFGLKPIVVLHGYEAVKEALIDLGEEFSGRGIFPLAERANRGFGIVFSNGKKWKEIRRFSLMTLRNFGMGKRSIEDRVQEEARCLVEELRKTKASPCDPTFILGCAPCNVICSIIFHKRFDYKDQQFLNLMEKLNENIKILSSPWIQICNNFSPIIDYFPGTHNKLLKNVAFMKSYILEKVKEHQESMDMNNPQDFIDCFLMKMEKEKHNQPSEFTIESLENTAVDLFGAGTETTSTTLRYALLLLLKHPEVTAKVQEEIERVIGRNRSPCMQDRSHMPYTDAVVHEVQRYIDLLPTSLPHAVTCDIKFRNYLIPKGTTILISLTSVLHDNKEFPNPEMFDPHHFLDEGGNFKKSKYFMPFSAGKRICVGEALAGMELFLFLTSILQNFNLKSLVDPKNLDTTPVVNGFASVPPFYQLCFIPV
Chain of Sodium channel protein type 5 subunit alpha (Q14524 whole entry): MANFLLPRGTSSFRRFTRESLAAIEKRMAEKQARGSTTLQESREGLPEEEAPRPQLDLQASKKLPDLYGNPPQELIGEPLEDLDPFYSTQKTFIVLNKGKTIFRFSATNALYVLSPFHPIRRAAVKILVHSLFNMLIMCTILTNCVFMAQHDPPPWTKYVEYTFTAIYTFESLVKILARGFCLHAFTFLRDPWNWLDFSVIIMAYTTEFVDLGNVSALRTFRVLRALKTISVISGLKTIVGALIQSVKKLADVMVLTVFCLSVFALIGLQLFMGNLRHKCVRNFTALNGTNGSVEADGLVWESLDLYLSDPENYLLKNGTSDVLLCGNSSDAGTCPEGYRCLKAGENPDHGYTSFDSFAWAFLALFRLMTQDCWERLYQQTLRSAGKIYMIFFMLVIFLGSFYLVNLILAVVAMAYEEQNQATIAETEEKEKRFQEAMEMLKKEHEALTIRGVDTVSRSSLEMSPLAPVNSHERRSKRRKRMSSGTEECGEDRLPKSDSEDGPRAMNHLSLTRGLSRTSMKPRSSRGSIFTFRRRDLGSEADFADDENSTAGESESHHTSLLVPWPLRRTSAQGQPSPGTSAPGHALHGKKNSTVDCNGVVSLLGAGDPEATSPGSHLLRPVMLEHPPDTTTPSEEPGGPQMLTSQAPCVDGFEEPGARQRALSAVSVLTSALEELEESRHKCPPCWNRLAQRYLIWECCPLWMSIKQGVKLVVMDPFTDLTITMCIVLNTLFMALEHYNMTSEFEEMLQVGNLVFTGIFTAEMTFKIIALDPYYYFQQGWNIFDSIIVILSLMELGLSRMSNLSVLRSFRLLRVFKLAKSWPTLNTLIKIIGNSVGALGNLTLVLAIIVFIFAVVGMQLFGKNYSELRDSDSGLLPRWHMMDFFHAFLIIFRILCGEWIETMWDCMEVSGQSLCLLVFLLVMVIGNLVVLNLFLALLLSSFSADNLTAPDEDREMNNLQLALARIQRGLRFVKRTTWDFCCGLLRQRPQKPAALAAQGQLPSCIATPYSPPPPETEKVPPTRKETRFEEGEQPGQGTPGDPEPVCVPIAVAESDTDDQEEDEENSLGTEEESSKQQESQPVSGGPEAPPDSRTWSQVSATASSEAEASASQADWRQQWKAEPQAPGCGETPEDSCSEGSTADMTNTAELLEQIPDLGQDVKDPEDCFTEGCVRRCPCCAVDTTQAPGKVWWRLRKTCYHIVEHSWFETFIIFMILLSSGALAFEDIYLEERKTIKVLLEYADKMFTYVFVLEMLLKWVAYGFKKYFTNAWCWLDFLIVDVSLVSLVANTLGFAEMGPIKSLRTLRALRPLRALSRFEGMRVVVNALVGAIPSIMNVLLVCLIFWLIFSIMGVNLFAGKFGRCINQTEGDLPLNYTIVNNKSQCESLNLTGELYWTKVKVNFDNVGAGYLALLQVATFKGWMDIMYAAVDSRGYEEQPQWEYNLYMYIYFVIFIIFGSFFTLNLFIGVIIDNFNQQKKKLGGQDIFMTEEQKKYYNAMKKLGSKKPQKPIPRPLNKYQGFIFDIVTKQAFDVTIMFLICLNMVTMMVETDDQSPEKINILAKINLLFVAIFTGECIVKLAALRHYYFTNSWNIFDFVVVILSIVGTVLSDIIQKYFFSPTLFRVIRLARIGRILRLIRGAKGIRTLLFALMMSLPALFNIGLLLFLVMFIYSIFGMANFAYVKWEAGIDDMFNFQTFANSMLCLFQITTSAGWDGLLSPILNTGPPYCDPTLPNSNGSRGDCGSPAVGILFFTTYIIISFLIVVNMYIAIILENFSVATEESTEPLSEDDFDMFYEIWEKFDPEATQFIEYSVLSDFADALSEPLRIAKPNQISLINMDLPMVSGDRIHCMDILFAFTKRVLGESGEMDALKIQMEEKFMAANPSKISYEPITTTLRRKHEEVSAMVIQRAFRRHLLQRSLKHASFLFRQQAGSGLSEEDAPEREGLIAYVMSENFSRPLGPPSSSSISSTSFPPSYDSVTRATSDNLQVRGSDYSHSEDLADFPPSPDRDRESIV
Chain of Voltage-dependent L-type calcium channel subunit alpha-1C (Q13936 whole entry): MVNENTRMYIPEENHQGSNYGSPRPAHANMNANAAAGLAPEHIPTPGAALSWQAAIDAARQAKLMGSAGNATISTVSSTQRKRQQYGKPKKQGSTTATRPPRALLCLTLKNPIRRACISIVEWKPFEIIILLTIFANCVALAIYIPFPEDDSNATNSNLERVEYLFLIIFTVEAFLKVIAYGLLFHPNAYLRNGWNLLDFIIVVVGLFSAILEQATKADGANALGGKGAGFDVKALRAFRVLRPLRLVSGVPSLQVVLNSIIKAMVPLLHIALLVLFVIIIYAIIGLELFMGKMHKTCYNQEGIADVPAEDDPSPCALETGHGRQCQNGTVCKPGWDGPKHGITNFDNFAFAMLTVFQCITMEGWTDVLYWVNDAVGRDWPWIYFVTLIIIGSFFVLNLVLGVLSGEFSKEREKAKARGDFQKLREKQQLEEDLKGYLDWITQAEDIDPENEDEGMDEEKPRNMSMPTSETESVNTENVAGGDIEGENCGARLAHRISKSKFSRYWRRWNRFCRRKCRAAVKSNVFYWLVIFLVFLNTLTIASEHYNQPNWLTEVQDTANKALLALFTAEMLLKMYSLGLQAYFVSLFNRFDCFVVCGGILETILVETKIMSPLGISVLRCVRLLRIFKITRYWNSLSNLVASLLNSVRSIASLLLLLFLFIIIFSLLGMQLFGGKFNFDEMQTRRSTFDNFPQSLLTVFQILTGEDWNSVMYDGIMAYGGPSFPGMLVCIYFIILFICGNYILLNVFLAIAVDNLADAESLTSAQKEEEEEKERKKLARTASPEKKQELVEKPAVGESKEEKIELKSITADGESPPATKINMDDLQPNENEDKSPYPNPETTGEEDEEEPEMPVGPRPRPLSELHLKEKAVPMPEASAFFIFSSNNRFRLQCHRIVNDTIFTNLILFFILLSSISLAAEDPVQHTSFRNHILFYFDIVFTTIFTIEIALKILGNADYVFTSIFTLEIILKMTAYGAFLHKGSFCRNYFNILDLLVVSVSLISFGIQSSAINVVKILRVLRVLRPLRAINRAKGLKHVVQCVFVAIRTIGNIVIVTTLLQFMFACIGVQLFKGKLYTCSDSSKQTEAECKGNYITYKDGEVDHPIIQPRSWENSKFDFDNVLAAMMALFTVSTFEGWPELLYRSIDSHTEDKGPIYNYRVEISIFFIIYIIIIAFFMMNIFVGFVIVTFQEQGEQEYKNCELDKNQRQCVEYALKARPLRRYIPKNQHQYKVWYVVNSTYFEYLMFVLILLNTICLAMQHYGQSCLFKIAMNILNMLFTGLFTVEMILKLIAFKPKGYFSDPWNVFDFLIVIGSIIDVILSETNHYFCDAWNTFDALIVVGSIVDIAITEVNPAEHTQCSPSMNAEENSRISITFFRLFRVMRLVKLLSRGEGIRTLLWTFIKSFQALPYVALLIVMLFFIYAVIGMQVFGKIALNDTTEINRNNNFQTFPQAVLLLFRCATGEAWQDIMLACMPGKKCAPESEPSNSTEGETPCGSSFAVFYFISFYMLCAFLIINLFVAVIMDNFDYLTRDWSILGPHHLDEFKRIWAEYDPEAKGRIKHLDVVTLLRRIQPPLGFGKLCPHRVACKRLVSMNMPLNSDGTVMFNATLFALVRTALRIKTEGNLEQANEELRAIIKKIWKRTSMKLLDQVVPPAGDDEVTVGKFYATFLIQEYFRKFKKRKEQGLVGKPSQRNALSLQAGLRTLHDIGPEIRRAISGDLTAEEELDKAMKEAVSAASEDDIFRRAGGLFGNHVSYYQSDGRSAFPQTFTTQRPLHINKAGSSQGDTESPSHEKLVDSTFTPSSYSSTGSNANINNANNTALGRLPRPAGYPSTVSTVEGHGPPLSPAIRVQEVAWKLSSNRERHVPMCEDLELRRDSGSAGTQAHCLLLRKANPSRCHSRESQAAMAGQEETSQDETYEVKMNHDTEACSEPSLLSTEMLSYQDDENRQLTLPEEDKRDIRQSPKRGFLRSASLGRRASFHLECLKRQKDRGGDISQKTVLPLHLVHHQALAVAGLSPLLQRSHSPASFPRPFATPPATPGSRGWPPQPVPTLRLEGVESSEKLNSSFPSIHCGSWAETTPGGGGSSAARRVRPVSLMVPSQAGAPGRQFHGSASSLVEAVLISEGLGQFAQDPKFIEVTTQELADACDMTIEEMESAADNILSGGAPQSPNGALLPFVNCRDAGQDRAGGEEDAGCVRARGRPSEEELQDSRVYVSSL

For `CC1=C(N2CCC3(CCN(C[C@H](O)c4ccc5c(c4C)COC5=O)CC3)C2=O)COC1=O`, the Activity (Rattus norvegicus [1]) was “Dose-Dependent Effect”, the IC50 [2] was > 100 µM and the Vd [3] was 7.9 L/kg. The Activity (Rattus norvegicus [4]) was “Dose-Dependent Effect”, the Activity [5] was “Non-Toxic” and the Drug metabolism [6] was “Metabolite_Notdetected”. The IC50 (Cytochrome P450 2C8) was > 50 µM, the Stability [7] was “Stable” and the Cmax [8] was 310 nM. The Activity (Rattus norvegicus [9]) was “Active”, the Stability [10] was “Stable” and the half-life [11] was 1.8 h. For the same compound, the bioavailability [12] was 3.4%, the clearance [13] was 29.4 mL/min/kg and the IC50 [14] was > 30 µM. For the same compound, the IC50 [15] was > 30 µM, the clearance [16] was 58.3 mL/min/kg and the Stability [17] was “Stable”. The Activity [18] was “Non-Toxic”, the Cmax [19] was 2400 nM and the Stability [20] was “Stable”. For the same compound, the IC50 (Cytochrome P450 2C9) was > 50 µM, the Drug metabolism [21] was “Metabolite_Notdetected” and the half-life [22] was 6.8 h. The Activity [23] was “Non-Toxic”, the Papp [24] was 21 ×10⁻⁶ cm/s and the bioavailability [25] was 100%. For the same compound, the Activity (Rattus norvegicus [26]) was “Dose-Dependent Effect”.
